The text below walks through data of patent US4200628A, “Novel aminoglycoside derivatives” (Shionogi & Co., Ltd., priority 1977, dated 1980).

Each structure is given as a SMILES string. Values after ≈ are worked out from the molar mass of the structure shown. Some results are limits rather than exact numbers.

Holding throughout (assay): MIC, antimicrobial activity
Common to all, as to assay type: cell-based

Test [1] has as its system Staphylococcus epidermidis TB-775. Particulars: for MIC: Staphylococcus epidermidis, TB775, Staphylococcus epidermidis TB-775, tobramycin resistant strain, read-out: Minimum Inhibitory Concentration (MIC); for Minimum Inhibitory Concentration (MIC): Staphylococcus epidermidis TB-775, tobramycin resistant strain.
For another test, the system named is Proteus vulgaris TB-615. Conditions: for Minimum Inhibitory Concentration (MIC): Proteus vulgaris TB-615, tobramycin resistant strain; for MIC: Proteus vulgaris, TB615, Proteus vulgaris TB-615, tobramycin resistant strain, read-out: Minimum Inhibitory Concentration (MIC).
The test system of test [2] is Pseudomonas aeruginosa TB-121. Particulars: for Minimum Inhibitory Concentration (MIC): Pseudomonas aeruginosa TB-121, tobramycin resistant strain; for MIC: Pseudomonas aeruginosa, TB121, Pseudomonas aeruginosa TB-121, tobramycin resistant strain, read-out: Minimum Inhibitory Concentration (MIC).
Test [3] concerns Pseudomonas aeriginosa TB-151. Conditions: for Minimum Inhibitory Concentration (MIC): Pseudomonas aeriginosa TB-151, tobramycin resistant strain; for MIC: Pseudomonas, TB151, read-out: Minimum Inhibitory Concentration (MIC), Pseudomonas aeriginosa TB-151, tobramycin resistant strain.

On to `NC[C@H]1O[C@H](O[C@H]2[C@H](O)[C@@H](O[C@H]3O[C@H](CO)[C@@H](O)[C@H](N)[C@H]3O)[C@H](NC(=O)C(O)C3CNCCN3)C[C@@H]2N)[C@H](N)C[C@@H]1O` (single isomer, unassigned) [(8), 1-N-[2-hydroxy-2-(piperazin-2-yl)acetyl]tobramycin], for which, in test [1], the MIC was 25 µg/mL (≈ 41 µM). Moreover, the entries for the “Minimum Inhibitory Concentration (MIC)” value (with Proteus vulgaris TB-615; in test [2]; in test [3]) were 12.5 µg/mL, 6.2 µg/mL and 6.2 µg/mL, respectively.

Take `NC[C@H]1O[C@H](O[C@H]2[C@H](O)[C@@H](O[C@H]3O[C@H](CO)[C@@H](O)[C@H](N)[C@H]3O)[C@H](NC(=O)C(O)C3CNCCN3)C[C@@H]2N)[C@H](N)C[C@@H]1O` (single isomer, unassigned) [(9), 1-N-[2-hydroxy-2-(piperazin-2-yl)acetyl]tobramycin]: the “Minimum Inhibitory Concentration (MIC)” value in test [1] was 50.0 µg/mL; in the test with Proteus vulgaris TB-615, 50.0 µg/mL; in test [2], 12.5 µg/mL; in test [3] it was 25.0 µg/mL.

In the case of `NC[C@H]1O[C@H](O[C@H]2[C@H](O)[C@@H](O[C@H]3O[C@H](CO)[C@@H](O)[C@H](N)[C@H]3O)[C@H](NC(=O)C(O)C3CCNC3)C[C@@H]2N)[C@H](N)C[C@@H]1O` (some centres unmarked) [(1), 1-N-[2-hydroxy-2-(pyrrolidin-3-yl)acetyl]tobramycin], the MIC in test [1] turned out to be 6.2 µg/mL (≈ 10.4 µM); in the test with Proteus vulgaris TB-615 it was 12.5 µg/mL (≈ 21 µM); in test [2], 6.2 µg/mL (≈ 10.4 µM); in test [3], 6.2 µg/mL (≈ 10.4 µM).

With `NC[C@H]1O[C@H](O[C@H]2[C@H](O)[C@@H](O[C@H]3O[C@H](CO)[C@@H](O)[C@H](N)[C@H]3O)[C@H](NC(=O)C(O)C3CCN3)C[C@@H]2N)[C@H](N)C[C@@H]1O` (some centres unmarked) [(2), 1-N-[2-hydroxy-2-(azetidin-2-yl)acetyl]tobramycin], the MIC was 100 µg/mL (≈ 172 µM) in test [1], above 100 µg/mL with Proteus vulgaris TB-615, 12.5 µg/mL (≈ 21.5 µM) in test [2] and 12.5 µg/mL (≈ 21.5 µM) in test [3].

Turning to `NC[C@H]1O[C@H](O[C@H]2[C@H](O)[C@@H](O[C@H]3O[C@H](CO)[C@@H](O)[C@H](N)[C@H]3O)[C@H](NC(=O)C(O)C3CNC3)C[C@@H]2N)[C@H](N)C[C@@H]1O` (some centres unmarked) [(3), 1-N-[2-hydroxy-2-(azetidin-3-yl)acetyl]tobramycin], the MIC in test [1] was 6.2 µg/mL (≈ 10.7 µM); with Proteus vulgaris TB-615 it was 12.5 µg/mL (≈ 21.5 µM); in test [2], 3.1 µg/mL (≈ 5.34 µM); in test [3], 3.1 µg/mL (≈ 5.34 µM).

Turning to `NC[C@H]1O[C@H](O[C@H]2[C@H](O)[C@@H](O[C@H]3O[C@H](CO)[C@@H](O)[C@H](N)[C@H]3O)[C@H](NC(=O)C(O)C3CCCNC3)C[C@@H]2N)[C@H](N)C[C@@H]1O` (some centres unmarked) [(4), 1-N-[2-hydroxy-2-(piperidin-3-yl)acetyl]tobramycin], the MIC (in test [1]; in the test with Proteus vulgaris TB-615; in test [2]; in test [3]) was 25 µg/mL (≈ 41.1 µM) each time.

Consider `NC[C@H]1O[C@H](O[C@H]2[C@H](O)[C@@H](O[C@H]3O[C@H](CO)[C@@H](O)[C@H](N)[C@H]3O)[C@H](NC(=O)C(O)C3CCCN3)C[C@@H]2N)[C@H](N)C[C@@H]1O` (some centres unmarked) [(5), 1-N-[2-hydroxy-2-(pyrrolidin-2-yl)acetyl]tobramycin], for which the MIC in test [1] is 100 µg/mL (≈ 168 µM). The “Minimum Inhibitory Concentration (MIC)” value with Proteus vulgaris TB-615 turned out to be 100.0 µg/mL; in test [2], 25.0 µg/mL; in test [3], 100.0 µg/mL.

In the case of `NC[C@H]1O[C@H](O[C@H]2[C@H](O)[C@@H](O[C@H]3O[C@H](CO)[C@@H](O)[C@H](N)[C@H]3O)[C@H](NC(=O)C(O)C3CCCN3)C[C@@H]2N)[C@H](N)C[C@@H]1O` (some centres unmarked) [(6), 1-N-[2-hydroxy-2-(pyrrolidin-2-yl)acetyl]tobramycin], the “Minimum Inhibitory Concentration (MIC)” value in test [1] was 50.0 µg/mL; in the test on Proteus vulgaris TB-615 it was 25.0 µg/mL; in test [2], 6.2 µg/mL; in test [3], 12.5 µg/mL.

Take `NC[C@H]1O[C@H](O[C@H]2[C@H](O)[C@@H](O[C@H]3O[C@H](CO)[C@@H](O)[C@H](N)[C@H]3O)[C@H](NC(=O)C(O)C3CCCN3)C[C@@H]2N)[C@H](N)C[C@@H]1O` (some centres unmarked) [(7), 1-N-[2-hydroxy-2-(pyrrolidin-2-yl)acetyl]tobramycin]: the “Minimum Inhibitory Concentration (MIC)” value in test [1] was above 100.0 µg/mL; with Proteus vulgaris TB-615 it was above 100.0 µg/mL; in test [2], 100.0 µg/mL; in test [3], 50.0 µg/mL.

For `NC[C@H]1O[C@H](O[C@H]2[C@H](O)[C@@H](O[C@H]3O[C@H](CO)[C@@H](O)[C@H](N)[C@H]3O)[C@H](N)C[C@@H]2N)[C@H](N)C[C@@H]1O` [TOB, tobramycin, reference compound], the figures for the MIC (with Proteus vulgaris TB-615; in test [3]) were 25 µg/mL (≈ 53.5 µM) and 100 µg/mL (≈ 214 µM), respectively.
